Test results published in patent US7977352B2, “Triazolopyridine compounds useful for the treatment of degenerative and inflammatory diseases” (Galapagos NV, priority 2006, dated 2011).

Biological target: T1, TAK1-TAB1 fusion protein (Homo sapiens, UniProt O43318)
T1 construct: purchased Upstate 14-600
T1 sequence (O43318 with tags, fused parts or gaps limits assumed): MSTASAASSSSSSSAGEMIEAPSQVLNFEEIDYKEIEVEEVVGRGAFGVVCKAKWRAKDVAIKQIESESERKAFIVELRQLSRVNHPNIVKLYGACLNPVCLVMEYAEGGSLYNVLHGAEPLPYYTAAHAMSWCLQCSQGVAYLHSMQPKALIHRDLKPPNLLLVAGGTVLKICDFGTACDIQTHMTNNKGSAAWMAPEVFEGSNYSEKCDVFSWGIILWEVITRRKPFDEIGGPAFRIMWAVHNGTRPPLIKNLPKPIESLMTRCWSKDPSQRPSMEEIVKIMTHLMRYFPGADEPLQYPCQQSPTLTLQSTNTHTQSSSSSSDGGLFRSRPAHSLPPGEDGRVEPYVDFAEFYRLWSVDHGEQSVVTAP
Assay: In vitro TAK1 kinase assay
Assay type: biochemical
Settings: casein substrate, [33P]-γ-ATP, 90 minutes at 30° C., semi-quantitative score, read-out: POTENCY TAK1 (MAP3K7)
Procedure, shortened: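 Radiometric kinase assay with TAK1-TAB1 fusion protein (0.5 mU), casein substrate, ATP plus [^33P]-γ-ATP in MOPS pH 7.0/EDTA buffer, compounds in 3-fold dilutions. 90 min at 30 °C, stopped with phosphoric acid; casein-incorporated label captured on filter plates and counted by scintillation.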

SMILES | IC50 [nM]
O=C(NCc1cccnc1)c1ccc(Nc2ccc(-c3cc[nH]c(=O)c3)n3ncnc23)cc1 [Example 41, 4-{[5-(2-oxo-1,2-dihydropyridin-4-yl)[1,2,4]triazolo[1,5-a]pyridin-8-yl]amino}-N-(pyridin-3-ylmethyl)benzamide] | 1000 to 5000
Cc1[nH]ncc1-c1ccc(Nc2ccc(N3CCOCC3)cc2)c2ncnn12 [Example 39, 5-(5-methyl-1H-pyrazol-4-yl)-N-(4-morpholin-4-ylphenyl)[1,2,4]triazolo[1,5-a]pyridin-8-amine] | 1000 to 5000
c1nc2c(Nc3ccc(N4CCOCC4)cc3)ccc(-c3cn[nH]c3)n2n1 [Example 7, (4-Morpholin-4-yl-phenyl)-[5-(1H-pyrazol-4-yl)-[1,2,4]triazolo[1,5-a]pyridin-8-yl]-amine] | 501 to 1000
NC(=O)c1ccc(-c2ccc(Nc3ccc(N4CCOCC4)cc3)c3ncnn23)cc1 [Example 1, 4-[8-(4-Morpholin-4-yl-phenylamino)-[1,2,4]triazolo[1,5-a]pyridin-5-yl]-benzamide] | > 10000
CN1CCN(c2ccc(Nc3ccc(-c4ccc(C(N)=O)c(F)c4)n4ncnc34)cc2)CC1 [Example 42, 2-fluoro-4-(8-{[4-(4-methylpiperazin-1-yl)phenyl]amino}[1,2,4]triazolo[1,5-a]pyridin-5-yl)benzamide] | 1000 to 5000
O=C(NCc1cccnc1)c1ccc(Nc2ccc(-c3cn[nH]c3)n3ncnc23)cc1 [Example 37, 4-{[5-(1H-pyrazol-4-yl)[1,2,4]triazolo[1,5-a]pyridin-8-yl]amino}-N-(pyridin-3-ylmethyl)benzamide] | 501 to 1000
O=C(NCc1cccnc1)c1ccc(Nc2ccc(-c3cc[nH]c(=O)c3)n3ncnc23)cc1 [Example 5, 4-[5-(2-oxo-1,2-dihydro-pyridin-4-yl)-[1,2,4]triazolo[1,5-a]pyridin-8-ylamino]-N-pyridin-3-ylmethyl-benzamide] | 501 to 1000
Cc1[nH]ncc1-c1ccc(Nc2ccc(N3CCOCC3)cc2)c2ncnn12 [Example 8, [5-(5-Methyl-1H-pyrazol-4-yl)-[1,2,4]triazolo[1,5-a]pyridin-8-yl]-(4-morpholin-4-yl-phenyl)-amine] | 1000 to 5000

Next, values leading:

IC50 [nM] | SMILES
501 to 1000 | O=C(NCc1cccnc1)c1ccc(Nc2ccc(-c3cn[nH]c3)n3ncnc23)cc1 [Example 3, 4-[5-(1H-Pyrazol-4-yl)-[1,2,4]triazolo[1,5-a]pyridin-8-ylamino]-N-pyridin-3-ylmethyl-benzamide]
501 to 1000 | CN1CCN(c2ccc(Nc3ccc(-c4cc[nH]c(=O)c4)n4ncnc34)cc2)CC1 [Example 4, 4-{8-[4-(4-Methyl-piperazin-1-yl)-phenylamino]-[1,2,4]triazolo[1,5-a]pyridin-5-yl}-1H-pyridin-2-one]
501 to 1000 | CN1CCN(c2ccc(Nc3ccc(-c4cn[nH]c4)n4ncnc34)cc2)CC1 [Example 2, [4-(4-Methyl-piperazin-1-yl)-phenyl]-[5-(1H-pyrazol-4-yl)-[1,2,4]triazolo[1,5-a]pyridin-8-yl]-amine]
< 500 | CN1CCN(c2ccc(Nc3ccc(-c4cn[nH]c4)n4ncnc34)cc2)CC1 [Example 36, N-[4-(4-methylpiperazin-1-yl)phenyl]-5-(1H-pyrazol-4-yl)[1,2,4]triazolo[1,5-a]pyridin-8-amine]
< 500 | CN1CCN(c2ccc(Nc3ccc(-c4cc[nH]c(=O)c4)n4ncnc34)cc2)CC1 [Example 40, 4-(8-{[4-(4-methylpiperazin-1-yl)phenyl]amino}[1,2,4]triazolo[1,5-a]pyridin-5-yl)pyridin-2(1H)-one]
